Results published in patent US20230203095A1, “BIOLOGICAL PEPTIDE FOR TREATING LUNG DISEASES AND APPLICATION THEREOF” (SHANGHAI INSTITUTE OF PHARMACEUTICAL INDUSTRY CO., LTD., priority 2019, published 2023).
“And” between values parts separate entries of the source, which are not always exact repeats. Identical values can stand only once. Peptide text beside a SMILES is read from it. * marks the point of attachment. X1 = CC(=O)N[C@H]1C(*)O[C@H](CO)[C@@H](O)[C@@H]1O

Test: Plasma drug concentrations and pharmacokinetics after a single intravenous or subcutaneous injection of SIPI-G9 in SD rats
Conditions: for level at 3 h: 180 min; for level at 4 h: 240 min; for clearance: CL; for MRT last: MRT0-t
Description: Routes: single back subcutaneous injection and single tail vein injection;
Orbital blood was collected at different time points before and after administration. […] High concentration samples were diluted with blank plasma.
Column: SHIM-PACK GISS C18 (2.1 × 100 mm, 1.9 µm); injection volume: 20 µL; mobile phase: phase A: 0.2% acetic acid in water; phase B: methanol, gradient elution (see Table 16 for details);
The ion source is electrospray ionization source (ESI); the drying gas (N2) temperature is 550° C.; the electrospray voltage is 5500 V; the detection method is positive ion detection; the scanning method is the selective reaction monitoring (MRM) method, and the scanning time is 0.15 s.
50 µL plasma was taken and 5 µL internal standard solution (DX07 (His-Leu-Glu-Thr-Glu-Leu-His) 100 ng/mL) was added. After that, 150 µL of methanol was added to precipitate proteins, then centrifuged at 13,000 rpm for 5 min, and 160 µL supernatant was taken and dried with 40° C. N2, then reconstituted with 75 µL of 0.1% formic acid aqueous solution.
Pharmacokinetic parameters were calculated using the non-compartmental model of DAS 2.0 software. Both Cmax and Tmax are measured values; AUC, T½, CL and Vz are calculated by DAS 2.0.

[1] = SIPI-G9 1 mg/kg i.v., SD rats, individual rats, 1 mg/kg
[2] = male, SD, rat, plasma, sc, 5 mg/kg, Plasma G-9 concentration, Mean, SIPI-G9 5 mg/kg s.c., SD rats, n=3
[3] = male, SD, rat, plasma, sc, 5 mg/kg, Plasma G-9 concentration, SIPI-G9 5 mg/kg single subcutaneous injection, SD rats, individual rats
[4] = rat, in vivo, iv, 1 mg/kg, Mean
[5] = rat, in vivo, sc, 5 mg/kg, Mean

CC(=O)N[C@H]1C(OC[C@H](NC(=O)[C@@H](NC(=O)[C@H](Cc2ccc(O)cc2)NC(=O)[C@@H](NC(=O)[C@H](CCC(N)=O)NC(=O)CN)[C@@H](C)OC2O[C@H](CO)[C@@H](O)[C@H](O)[C@H]2NC(C)=O)[C@@H](C)O)C(=O)NCC(=O)O)O[C@H](CO)[C@@H](O)[C@@H]1O (some centres unmarked) [SIPI-G9, GQT(Glc)YTS(Glc)G] (H-GQT(X1)YTS(X1)G-OH)
T1/2 [1]: 8.50 min and 7.50 min
Vd [1]: 2.23 L/kg and 1.29 L/kg
Plasma G-9 concentration (SIPI-G9 1 mg/kg single intravenous injection, SD rats, 3 min, individual rats, 1 mg/kg): 714 ng/mL and 573 ng/mL and 737 ng/mL
Plasma G-9 concentration (SIPI-G9 1 mg/kg single intravenous injection, SD rats, 6 min, individual rats, 1 mg/kg): 265 ng/mL and 231 ng/mL and 295 ng/mL
Plasma G-9 concentration (SIPI-G9 1 mg/kg single intravenous injection, SD rats, 10 min, individual rats, 1 mg/kg): 124 ng/mL and 120 ng/mL and 377 ng/mL
Plasma G-9 concentration (SIPI-G9 1 mg/kg single intravenous injection, SD rats, 20 min, individual rats, 1 mg/kg): 33.5 ng/mL and 31.6 ng/mL and 80.0 ng/mL
Plasma G-9 concentration (SIPI-G9 1 mg/kg single intravenous injection, SD rats, 40 min, individual rats, 1 mg/kg): 6.09 ng/mL and 5.68 ng/mL and 6.78 ng/mL
Plasma G-9 concentration (SIPI-G9 1 mg/kg single intravenous injection, SD rats, 60 min, individual rats, 1 mg/kg): 1.33 ng/mL and 1.21 ng/mL and 2.00 ng/mL
Plasma G-9 concentration (SIPI-G9 5 mg/kg single subcutaneous injection, SD rats, 0 min, individual rats): 0 ng/mL
Plasma G-9 concentration (SIPI-G9 5 mg/kg single subcutaneous injection, SD rats, 40 min, individual rats, 5 mg/kg): 229 ng/mL
Plasma G-9 concentration (SIPI-G9 5 mg/kg single subcutaneous injection, SD rats, 120 min, individual rats, 5 mg/kg): 28.5 ng/mL and 33.5 ng/mL and 24.5 ng/mL
AUC(0-t) (male, SD, rat, in vivo, iv, 1 mg/kg): 114 ng·h/mL
AUC(0-t) (male, SD, rat, in vivo, sc, 5 mg/kg): 490 ng·h/mL
level at 0.05 h (male, SD, rat, plasma, iv, 1 mg/kg, Plasma G-9 concentration, Mean, SIPI-G9 1 mg/kg i.v., SD rats, 3 min, n=3): 675 ng/mL
level at 0.1 h (male, SD, rat, plasma, iv, 1 mg/kg, Plasma G-9 concentration, Mean, SIPI-G9 1 mg/kg i.v., SD rats, 6 min, n=3): 264 ng/mL
level at 10 min (male, SD, rat, plasma, iv, 1 mg/kg, Plasma G-9 concentration, Mean, SIPI-G9 1 mg/kg i.v., SD rats, 10 min, n=3): 207 ng/mL
level at 20 min (male, SD, rat, plasma, iv, 1 mg/kg, Plasma G-9 concentration, Mean, SIPI-G9 1 mg/kg i.v., SD rats, 20 min, n=3): 48.4 ng/mL
level at 40 min (male, SD, rat, plasma, iv, 1 mg/kg, Plasma G-9 concentration, Mean, SIPI-G9 1 mg/kg i.v., SD rats, 40 min, n=3): 6.18 ng/mL
level at 1 h (male, SD, rat, plasma, iv, 1 mg/kg, Plasma G-9 concentration, Mean, SIPI-G9 1 mg/kg i.v., SD rats, 60 min, n=3): 1.51 ng/mL
level at 0.05 h (male, SD, rat, plasma, sc, 5 mg/kg, Plasma G-9 concentration, Mean, SIPI-G9 5 mg/kg s.c., SD rats, 3 min, n=3): 699 ng/mL
level at 0.1 h (male, SD, rat, plasma, sc, 5 mg/kg, Plasma G-9 concentration, Mean, SIPI-G9 5 mg/kg s.c., SD rats, 6 min, n=3): 1020 ng/mL
level at 10 min (male, SD, rat, plasma, sc, 5 mg/kg, Plasma G-9 concentration, Mean, SIPI-G9 5 mg/kg s.c., SD rats, 10 min, n=3): 796 ng/mL
level at 20 min (male, SD, rat, plasma, sc, 5 mg/kg, Plasma G-9 concentration, Mean, SIPI-G9 5 mg/kg s.c., SD rats, 20 min, n=3): 408 ng/mL
level at 40 min (male, SD, rat, plasma, sc, 5 mg/kg, Plasma G-9 concentration, Mean, SIPI-G9 5 mg/kg s.c., SD rats, 40 min, n=3): 228 ng/mL
level at 1 h (male, SD, rat, plasma, sc, 5 mg/kg, Plasma G-9 concentration, Mean, SIPI-G9 5 mg/kg s.c., SD rats, 60 min, n=3): 131 ng/mL
level at 2 h (male, SD, rat, plasma, sc, 5 mg/kg, Plasma G-9 concentration, Mean, SIPI-G9 5 mg/kg s.c., SD rats, 120 min, n=3): 28.8 ng/mL
level at 3 h [2]: 6.01 ng/mL
level at 4 h [2]: 0.708 ng/mL
level at 0.05 h (male, SD, rat, plasma, sc, 5 mg/kg, Plasma G-9 concentration, SIPI-G9 5 mg/kg single subcutaneous injection, SD rats, 3 min, individual rats): 758 ng/mL
level at 0.1 h (male, SD, rat, plasma, sc, 5 mg/kg, Plasma G-9 concentration, SIPI-G9 5 mg/kg single subcutaneous injection, SD rats, 6 min, individual rats): 904 ng/mL
level at 10 min (male, SD, rat, plasma, sc, 5 mg/kg, Plasma G-9 concentration, SIPI-G9 5 mg/kg single subcutaneous injection, SD rats, 10 min, individual rats): 633 ng/mL
level at 20 min (male, SD, rat, plasma, sc, 5 mg/kg, Plasma G-9 concentration, SIPI-G9 5 mg/kg single subcutaneous injection, SD rats, 20 min, individual rats): 324 ng/mL
level at 40 min (male, SD, rat, plasma, sc, 5 mg/kg, Plasma G-9 concentration, SIPI-G9 5 mg/kg single subcutaneous injection, SD rats, 40 min, individual rats): 230 ng/mL
level at 1 h (male, SD, rat, plasma, sc, 5 mg/kg, Plasma G-9 concentration, SIPI-G9 5 mg/kg single subcutaneous injection, SD rats, 60 min, individual rats): 118 ng/mL
level at 3 h [3]: 6.6 ng/mL
level at 4 h [3]: 0.807 ng/mL
Fa (absolute bioavailability) (rat, in vivo): 96.6%
bioavailability (rat, in vivo, Fa (absolute bioavailability)): 79.2%
clearance (rat, in vivo, iv, 1 mg/kg): 151 mL/min/kg
clearance [4]: 151 mL/min/kg
Cmax (rat, in vivo, iv, 1 mg/kg): 714 ng/mL
Cmax [4]: 675 ng/mL
MRT last (rat, in vivo, iv, 1 mg/kg): 5.49 min
MRT last [4]: 6.63 min
half-life (rat, in vivo, iv, 1 mg/kg, T1/2, Mean, SIPI-G9 1 mg/kg i.v., SD rats, n=3): 8.2 min
half-life (rat, in vivo, iv, 1 mg/kg, T1/2, SIPI-G9 1 mg/kg i.v., SD rats, individual rats): 8.59 min
Tmax (rat, in vivo, iv, 1 mg/kg): 3 min
Tmax [4]: 3 min
Vd (rat, in vivo, iv, 1 mg/kg, Vd, Mean, SIPI-G9 1 mg/kg i.v., SD rats, n=3): 1.8 L/kg
Vd (rat, in vivo, iv, 1 mg/kg, Vd, SIPI-G9 1 mg/kg i.v., SD rats, individual rats): 1.87 L/kg
Cmax (rat, in vivo, sc, 5 mg/kg): 904 ng/mL
Cmax [5]: 1020 ng/mL
MRT last (rat, in vivo, sc, 5 mg/kg): 34.3 min
MRT last [5]: 33.9 min
Tmax (rat, in vivo, sc, 5 mg/kg): 6 min
Tmax [5]: 7 min
